The test system of assay [1] is SETVI. Nature of the assay: Pre-emergence herbicidal action against SETVI. The format is in vivo, Setaria viridis. Conditions: 320 g/ha, scored visually after 3 weeks vs untreated controls. A digest of the protocol:
(§1)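 Pre-emergence soil-surface application: WP/EC in water, 600 to 800 L/ha, + 0.2% wetting agent, onto soil-covered seeds in sandy loam. Greenhouse, 3 wk. Visual % activity vs untreated (100% = dead).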

The subject of assay [2] is ECHCG. Nature of the assay: Post-emergence herbicidal action against ECHCG. The format is in vivo, Echinochloa crus-galli. Conditions: 80 g/ha, visual assessment about 3 weeks after treatment vs untreated controls. An outline of the steps:
(§2)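 Visual scoring about 3 weeks after treatment gave % herbicidal action relative to untreated plants (0% = control-like, 100% = plants dead). Compounds, as WP or EC with 0.2% wetting agent, were sprayed onto green parts at 600–800 l/ha. Plants had reached the one-leaf stage, 2–3 weeks after sowing in sandy loam under greenhouse conditions.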

Assay [3] has as its system DIGSA. Nature of the assay: Pre-emergence herbicidal action against DIGSA. The format is in vivo, Digitaria sanguinalis. As to conditions: 320 g/ha, scored visually after 3 weeks vs untreated controls. An outline of the steps:
as §1

Assay [4] relates to ALOMY. Nature of the assay: Pre-emergence herbicidal action against ALOMY. The format is in vivo, Alopecurus myosuroides. Conditions: 320 g/ha, scored visually after 3 weeks vs untreated controls. A digest of the protocol: as §1
The test system of another assay is ABUTH. In words: Post-emergence herbicidal action against ABUTH. The format is in vivo, Abutylon threophrasti. Conditions: 80 g/ha, visual assessment about 3 weeks after treatment vs untreated controls. An outline of the steps:
as §2

In the next assay the test system is AMARE. In words: Post-emergence herbicidal action against AMARE. The format is in vivo, Amaranthus retroflexus. Conditions: 80 g/ha, visual assessment about 3 weeks after treatment vs untreated controls. How it is done: (§3) Seeds of monocotyledonous and dicotyledonous weed and crop plants are laid out in sandy loam soil in wood-fiber pots, covered with soil and cultivated in a greenhouse under good growth conditions. 2 to 3 weeks after sowing, the test plants are treated at the one-leaf stage. The compounds of the invention, formulated in the form of wettable powders (WP) or as emulsion concentrates (EC), are then sprayed onto the green parts of the plants as aqueous suspension or emulsion at a water application rate equating to 600 to 800 l/ha with addition of 0.2% wetting agent. After the test plants have been left to stand in the greenhouse under optimal growth conditions for about 3 weeks, the action of the preparations is assessed visually in comparison to untreated controls (herbicidal action in percent (%): 100% activity=the plants have died, 0% activity=like control plants).

Assay [5] deals with SETVI. Nature of the assay: Post-emergence herbicidal action against SETVI. The format is in vivo, Setaria viridis. As to conditions: 80 g/ha, visual assessment about 3 weeks after treatment vs untreated controls. An outline of the steps:
as §2

For assay [6], the system named is LOLRI. In words: Pre-emergence herbicidal action against LOLRI (Table 8, titled post-emergence at 320 g/ha). The format is in vivo, Lolium rigidum. Conditions: table stands in the pre-emergence section. A digest of the protocol: as §1
Assay [7] concerns DIGSA. Nature of the assay: Post-emergence herbicidal action against DIGSA. The format is in vivo, Digitaria sanguinalis. As to conditions: 80 g/ha, visual assessment about 3 weeks after treatment vs untreated controls. A digest of the protocol: as §2
Assay [8] concerns AVEFA. In words: Pre-emergence herbicidal action against AVEFA. The format is in vivo, Avena fatua. As to conditions: 320 g/ha, scored visually after 3 weeks vs untreated controls. An outline of the steps:
as §1

The test system of assay [9] is LOLRI. Nature of the assay: Post-emergence herbicidal action against LOLRI. As to conditions: 80 g/ha, visual assessment about 3 weeks after treatment vs untreated controls. The format is in vivo, Lolium rigidum. A digest of the protocol: as §2
The subject of assay [10] is AVEFA. In words: Post-emergence herbicidal action against AVEFA. The format is in vivo, Avena fatua. As to conditions: 80 g/ha, visual assessment after about 3 weeks. An outline of the steps:
as §2

The test system of assay [11] is ECHCG. In words: Pre-emergence herbicidal action against ECHCG. The format is in vivo, Echinochloa crus-galli. As to conditions: 320 g/ha, scored visually after 3 weeks vs untreated controls. An outline of the steps:
as §1

The subject of assay [12] is ALOMY. Nature of the assay: Post-emergence herbicidal action against ALOMY. The format is in vivo, Alopecurus myosuroides. As to conditions: 80 g/ha, visual assessment after about 3 weeks. A digest of the protocol:
as §2

Another assay has as its system VERPE. Nature of the assay: Pre-emergence herbicidal action against VERPE. The format is in vivo, Veronica persica. Conditions: 320 g/ha. A digest of the protocol: as §1
For assay [13], the system named is VIOTR. Nature of the assay: Post-emergence herbicidal action against VIOTR. The format is in vivo, Viola tricolor. Conditions: 80 g/ha, visual assessment about 3 weeks after treatment vs untreated controls. On the procedure:
as §3

For another assay, the system named is POLCO. Nature of the assay: Pre-emergence herbicidal action against POLCO. As to conditions: 320 g/ha. The format is in vivo, Polygonum convolvulus. An outline of the steps:
as §1

The subject of assay [14] is VIOTR. In words: Pre-emergence herbicidal action against VIOTR. Conditions: 320 g/ha. The format is in vivo, Viola tricolor. An outline of the steps: as §1
Another assay deals with HORMU. Nature of the assay: Post-emergence herbicidal action against HORMU. The format is in vivo, Hordeum murinum. As to conditions: 80 g/ha, visual assessment about 3 weeks after treatment vs untreated controls. On the procedure: as §3

With `CC#Cc1cc(F)c(C2=C(OC(=O)OCC)C3(CCC(COC)C3)NC2=O)c(OC)c1` (stereo not shown) [Example P-62], the “Pre-emergence action against SETVI in %” value in the assay with SETVI [1] is given as 100%. Also, in the assay with ECHCG [2], the “Post-emergence action against ECHCG in %” value was found to be 100%. In addition, the “Pre-emergence action against DIGSA in %” value in the assay with DIGSA [3] is 100%. In addition, in the assay with ALOMY [4], the “Pre-emergence action against ALOMY in %” value was 100%. Moreover, the “Post-emergence action against ABUTH in %” value in the assay with ABUTH stood at 80%. Besides, the “Post-emergence action against AMARE in %” value in the assay with AMARE turned out to be 80%. Moreover, the “Post-emergence action against SETVI in %” value in the assay with SETVI [5] is on record as 100%. In addition, the “Pre-emergence herbicidal action against LOLRI in %” value with LOLRI [6] was 100%. The “Post-emergence action against DIGSA in %” value in the assay with DIGSA [7] is given as 100%. The “Pre-emergence action against AVEFA in %” value in the assay with AVEFA [8] came out at 90%. In the assay on LOLRI [9], the “Post-emergence action against LOLRI in %” value is listed as 90%. The “Post-emergence action against AVEFA in %” value in the assay on AVEFA [10] came out at 90%. For the same molecule, the “Pre-emergence action against ECHCG in %” value in the assay on ECHCG [11] is 100%. The “Post-emergence action against ALOMY in %” value in the assay with ALOMY [12] is on record as 90%.
For `C=CCOCC1CCC2(C1)NC(=O)C(c1c(C)cc(C#CC)cc1Cl)=C2OC(=O)OCC` (stereo not shown) [Example P-72], in the assay with SETVI [1], the “Pre-emergence action against SETVI in %” value was found to be 100%. Moreover, the “Post-emergence action against ECHCG in %” value in the assay with ECHCG [2] is on record as 100%. Also, the “Pre-emergence action against VERPE in %” value in the assay with VERPE worked out at 80%. Moreover, in the assay with DIGSA [3], the “Pre-emergence action against DIGSA in %” value was 100%. For the same molecule, in the assay on VIOTR [13], the “Post-emergence action against VIOTR in %” value worked out at 90%. For the same molecule, the “Pre-emergence action against ALOMY in %” value in the assay on ALOMY [4] was found to be 90%. Further, in the assay with SETVI [5], the “Post-emergence action against SETVI in %” value was 100%. Besides, the “Pre-emergence herbicidal action against LOLRI in %” value in the assay with LOLRI [6] was 100%. In addition, in the assay on DIGSA [7], the “Post-emergence action against DIGSA in %” value amounted to 90%. For the same molecule, the “Pre-emergence action against POLCO in %” value in the assay with POLCO is given as 100%. Also, the “Post-emergence action against LOLRI in %” value in the assay with LOLRI [9] is listed as 80%. For the same molecule, the “Pre-emergence action against ECHCG in %” value in the assay on ECHCG [11] stood at 100%. The “Pre-emergence action against VIOTR in %” value in the assay with VIOTR [14] amounted to 100%. In addition, in the assay with ALOMY [12], the “Post-emergence action against ALOMY in %” value was determined as 80%.
Turning to `CC#Cc1cc(C)c(C2=C(OC(=O)C(C)C)C3(CCC(COCC)C3)NC2=O)c(Cl)c1` (stereo not shown) [Example P-17], the “Post-emergence action against ECHCG in %” value with ECHCG [2] was found to be 100%. Moreover, in the assay with VIOTR [13], the “Post-emergence action against VIOTR in %” value came to 80%. Also, the “Post-emergence action against ABUTH in %” value in the assay on ABUTH was determined as 90%. Besides, the “Post-emergence action against HORMU in %” value with HORMU is on record as 100%. Also, the “Post-emergence action against SETVI in %” value in the assay on SETVI [5] is reported as 100%. Also, in the assay on DIGSA [7], the “Post-emergence action against DIGSA in %” value was determined as 100%. Moreover, the “Post-emergence action against LOLRI in %” value with LOLRI [9] was 100%. The “Post-emergence action against AVEFA in %” value in the assay with AVEFA [10] worked out at 100%. Besides, the “Post-emergence action against ALOMY in %” value with ALOMY [12] was found to be 100%.
Take `CC#Cc1cc(C)c(C2=C(O)C3(CCC(COC)C3)NC2=O)c(OC)c1` (stereo not shown) [Example I-31]: the “Pre-emergence action against SETVI in %” value with SETVI [1] was found to be 100%. For the same molecule, the “Post-emergence action against ECHCG in %” value with ECHCG [2] is listed as 100%. For the same molecule, the “Pre-emergence action against DIGSA in %” value in the assay on DIGSA [3] is reported as 100%. Also, in the assay with ALOMY [4], the “Pre-emergence action against ALOMY in %” value turned out to be 100%. For the same molecule, in the assay on ABUTH, the “Post-emergence action against ABUTH in %” value amounted to 80%. Besides, in the assay with AMARE, the “Post-emergence action against AMARE in %” value was 80%. Also, the “Post-emergence action against SETVI in %” value in the assay with SETVI [5] is given as 100%. The “Pre-emergence herbicidal action against LOLRI in %” value in the assay with LOLRI [6] is listed as 100%. For the same molecule, the “Post-emergence action against DIGSA in %” value with DIGSA [7] worked out at 100%. Also, the “Pre-emergence action against AVEFA in %” value in the assay with AVEFA [8] came out at 80%. In addition, the “Post-emergence action against LOLRI in %” value in the assay with LOLRI [9] is 100%. Moreover, the “Post-emergence action against AVEFA in %” value in the assay on AVEFA [10] turned out to be 100%. In the assay with ECHCG [11], the “Pre-emergence action against ECHCG in %” value came to 100%. The “Pre-emergence action against VIOTR in %” value in the assay with VIOTR [14] was found to be 80%. Further, the “Post-emergence action against ALOMY in %” value with ALOMY [12] is 100%.

Source of the values: US20220386606A1, “SPECIFICALLY SUBSTITUTED 3-PHENYL-5-SPIROCYCLOPENTYL-3-PYRROLIN-2-ONES AND THEIR USE AS HERBICIDES” (Bayer Aktiengesellschaft, priority 2019, published 2022).
